Results on three compounds are retold here after ChEMBL document CHEMBL4706637, “Design, synthesis and biological evaluation of thioether-containing lenalidomide and pomalidomide derivatives with anti-multiple myeloma activity” (Eur J Med Chem, 2021).

In data set [1] the target is Zinc finger protein Aiolos (Homo sapiens) (UniProt Q9UKT9). In words: Induction of IKZF3 degradation in human MM1.S cells assessed as reduction in IKZF3 level incubated for 12 hrs by immunoblot analysis. The data set is classed as cell-based. As to conditions: dose 0.02-2 µM.
Zinc finger protein Aiolos (Homo sapiens), sequence (Q9UKT9 whole entry): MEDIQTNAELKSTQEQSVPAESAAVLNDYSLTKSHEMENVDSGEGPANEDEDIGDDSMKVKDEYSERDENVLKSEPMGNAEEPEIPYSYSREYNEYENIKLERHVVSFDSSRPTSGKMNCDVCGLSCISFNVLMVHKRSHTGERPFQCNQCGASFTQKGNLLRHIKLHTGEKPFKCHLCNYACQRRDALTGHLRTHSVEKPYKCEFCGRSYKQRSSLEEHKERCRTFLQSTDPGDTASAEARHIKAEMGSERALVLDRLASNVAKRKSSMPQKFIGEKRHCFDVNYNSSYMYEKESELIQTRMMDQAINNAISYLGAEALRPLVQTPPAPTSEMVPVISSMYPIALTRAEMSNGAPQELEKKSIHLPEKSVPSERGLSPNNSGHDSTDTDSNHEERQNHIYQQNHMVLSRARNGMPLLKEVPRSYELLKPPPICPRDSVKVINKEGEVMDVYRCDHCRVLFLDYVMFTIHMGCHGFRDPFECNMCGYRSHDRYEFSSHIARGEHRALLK
The target of data set [2] is DNA-binding protein Ikaros (Homo sapiens) (UniProt Q13422). Description: Induction of IKZF1 degradation in human MM1.S cells assessed as reduction in IKZF1 level incubated for 12 hrs by immunoblot analysis. The data set is classed as cell-based. As to conditions: dose 0.02-2 µM. (In general: A western blot detects proteins with antibodies after separation by electrophoresis.)
DNA-binding protein Ikaros (Homo sapiens), sequence (Q13422 whole entry): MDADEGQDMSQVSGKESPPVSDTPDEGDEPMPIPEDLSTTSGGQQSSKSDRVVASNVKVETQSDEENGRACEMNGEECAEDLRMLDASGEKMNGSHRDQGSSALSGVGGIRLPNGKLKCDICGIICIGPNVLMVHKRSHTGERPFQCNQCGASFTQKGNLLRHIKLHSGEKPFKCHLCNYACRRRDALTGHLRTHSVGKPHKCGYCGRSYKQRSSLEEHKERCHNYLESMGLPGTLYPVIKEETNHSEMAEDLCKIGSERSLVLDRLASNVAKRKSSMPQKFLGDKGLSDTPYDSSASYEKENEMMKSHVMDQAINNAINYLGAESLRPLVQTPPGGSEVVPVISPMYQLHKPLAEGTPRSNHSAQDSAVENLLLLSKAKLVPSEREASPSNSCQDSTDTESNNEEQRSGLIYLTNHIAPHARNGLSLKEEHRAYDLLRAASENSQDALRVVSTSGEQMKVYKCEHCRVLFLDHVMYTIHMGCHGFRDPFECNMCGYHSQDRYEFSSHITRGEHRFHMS

The nature of data set [3]: Intrinsic clearance in human. Type of data set: ADME.
Data set [4] is described as follows: Half-life in human liver microsomes. Type of data set: ADME, Microsome. In general terms: Liver microsomes are a subcellular fraction often used to study metabolism.
The nature of data set [5]: Intrinsic clearance in human liver microsomes measured per gm of protein. The data set is classed as ADME, Microsome.
Data set [6] relates to MM1.S. In words: Antitumor activity against human MM1.S cells xenografted in CB17-SCID mouse assessed as reduction in tumor weight at 60 mg/kg, po qd for 14 days and measured after 14 days. The data set is classed as functional. As to conditions: 336 h, time 14 day. For orientation: A xenograft is tissue or cells of one species grown in another, often human tumour cells in immunodeficient mice.

Data set [7] can be described thus: Hepatic intrinsic clearance in human. Type of data set: ADME.
Data set [8] concerns MM1.S. Description: Antiproliferative activity against human MM1.S cells assessed as reduction in cell growth measured after 7 days culturing by CellTiter 96 Aqueous non-radioactive cell proliferation assay. Type of data set: functional, cell-based. The conditions noted are these: 168 h.
Data set [9] in a line: Metabolic stability in human liver microsomes assessed as parent compound remaining. The data set is classed as ADME, Microsome.
For data set [10], the target named is DNA-binding protein Ikaros (Homo sapiens) (UniProt Q13422). Description: Induction of IKZF1 degradation in human MM1.S cells assessed as reduction in IKZF1 level at 0.02 to 2 uM incubated for 12 hrs by immunoblot analysis. Type of data set: cell-based. As to conditions: dose 0.02-2 µM.
In data set [11] the target is Zinc finger protein Aiolos (Homo sapiens) (UniProt Q9UKT9). In words: Induction of IKZF3 degradation in human MM1.S cells assessed as reduction in IKZF3 level at 0.02 to 2 uM incubated for 12 hrs by immunoblot analysis. Type of data set: cell-based. The conditions noted are these: dose 0.02-2 µM.

The source made the active and inactive calls.

For `COc1ccccc1Sc1cccc2c1CN(C1CCC(=O)NC1=O)C2=O` (stereo unspecified), the Activity result in data set [1] and in data set [2] was “Dose-dependent effect” throughout.

In data set [3], `Nc1cccc2c1CN(C1CCC(=O)NC1=O)C2=O` (stereo unspecified) [LENALIDOMIDE] had a CL of 138.7 mL/min. The half-life (as a rule, the time needed for the level to fall by half in the phase considered) in data set [4] is 19.3 h. Also, the CLH came to 1.8 mL/min/g in [5] and 127 mL/min in [7]. Further, in the data set on MM1.S [6], the inhibition in vivo (usually the relative decrease from the control value, in per cent) at 60 mg/kg/day stood at 62.6%. Moreover, the IC50 (commonly the point on the concentration scale where inhibition reaches its midpoint) in the data set with MM1.S [8] was determined as 81 nM. The Stabilty in [9] came to 91.5%.

`O=C1CCC(N2Cc3c(Sc4ccc(F)cc4)cccc3C2=O)C(=O)N1` (stereo unspecified): the outcome in data set [10] and in data set [11] was Active.
